Assay results: PubChem BioAssay AID1919008 (Molecular Pharmacology Branch, DTP, NCI, 2023)

Tested on: DMS-114 complex spheroids with HUVEC/MSC, growth % test/control
Experiment: Anticancer human tumor DMS-114 cell line growth inhibition [AhR];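 note: spheroids exposed to agents for 7 days before readout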;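 for viability, T/C: 100% = DMSO vehicle control wells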
Conditions: for IC50: curve of first compound; for viability, T/C: stronger effect = lower value
Procedure, shortened: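 Complex tumor spheroids co-cultured with HUVEC and human MSC stroma; AhR antagonists tested in combination with standard-of-care and investigational agents. Top concentration at or near clinical Cmax (else 10 microM), half-log dilutions; growth expressed as percent test/control.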

[1] = second compound 0.1 µM, first compound 0.000949 µM
[2] = second compound 0.1 µM, first compound 0.003 µM
[3] = second compound 0.1 µM, first compound 0.00949 µM
[4] = second compound 0.1 µM, first compound 0.03 µM
[5] = second compound 0.1 µM, first compound 0.0949 µM
[6] = second compound 0.1 µM, first compound 0.3 µM
[7] = second compound 0.316 µM, first compound 0.000949 µM
[8] = second compound 0.316 µM, first compound 0.003 µM
[9] = second compound 0.316 µM, first compound 0.00949 µM
[10] = second compound 0.316 µM, first compound 0.03 µM
[11] = second compound 0.316 µM, first compound 0.0949 µM
[12] = second compound 0.316 µM, first compound 0.3 µM
[13] = second compound 1 µM, first compound 0.000949 µM
[14] = second compound 1 µM, first compound 0.003 µM
[15] = second compound 1 µM, first compound 0.00949 µM
[16] = second compound 1 µM, first compound 0.03 µM
[17] = second compound 1 µM, first compound 0.0949 µM
[18] = second compound 1 µM, first compound 0.3 µM
[19] = second compound 3.16 µM, first compound 0.000949 µM
[20] = second compound 3.16 µM, first compound 0.003 µM
[21] = second compound 3.16 µM, first compound 0.00949 µM
[22] = second compound 3.16 µM, first compound 0.03 µM
[23] = second compound 3.16 µM, first compound 0.0949 µM
[24] = second compound 3.16 µM, first compound 0.3 µM
[25] = second compound 10 µM, first compound 0.000949 µM
[26] = second compound 10 µM, first compound 0.003 µM
[27] = second compound 10 µM, first compound 0.00949 µM
[28] = second compound 10 µM, first compound 0.03 µM
[29] = second compound 10 µM, first compound 0.0949 µM
[30] = second compound 10 µM, first compound 0.3 µM
[31] = second compound 0.1 µM, first compound 0.0316 µM
[32] = second compound 0.1 µM, first compound 0.1 µM
[33] = second compound 0.1 µM, first compound 0.316 µM
[34] = second compound 0.1 µM, first compound 1 µM
[35] = second compound 0.1 µM, first compound 3.16 µM
[36] = second compound 0.1 µM, first compound 10 µM
[37] = second compound 0.316 µM, first compound 0.0316 µM
[38] = second compound 0.316 µM, first compound 0.1 µM
[39] = second compound 0.316 µM, first compound 0.316 µM
[40] = second compound 0.316 µM, first compound 1 µM
[41] = second compound 0.316 µM, first compound 3.16 µM
[42] = second compound 0.316 µM, first compound 10 µM
[43] = second compound 1 µM, first compound 0.0316 µM
[44] = second compound 1 µM, first compound 0.1 µM
[45] = second compound 1 µM, first compound 0.316 µM
[46] = second compound 1 µM, first compound 1 µM
[47] = second compound 1 µM, first compound 3.16 µM
[48] = second compound 1 µM, first compound 10 µM
[49] = second compound 3.16 µM, first compound 0.0316 µM
[50] = second compound 3.16 µM, first compound 0.1 µM
[51] = second compound 3.16 µM, first compound 0.316 µM
[52] = second compound 3.16 µM, first compound 1 µM
[53] = second compound 3.16 µM, first compound 3.16 µM
[54] = second compound 3.16 µM, first compound 10 µM
[55] = second compound 10 µM, first compound 0.0316 µM
[56] = second compound 10 µM, first compound 0.1 µM
[57] = second compound 10 µM, first compound 0.316 µM
[58] = second compound 10 µM, first compound 1 µM
[59] = second compound 10 µM, first compound 3.16 µM
[60] = second compound 10 µM, first compound 10 µM

`CC(C)CC(NC(=O)C(Cc1ccccc1)NC(=O)c1cnccn1)B(O)O` (stereo not given) + Cc1cncc(-c2nc(NCCc3c[nH]c4ccccc34)c3ncn(C(C)C)c3n2)c1 was tested, and the IC50 (second compound 0.1 µM) was 5.45 nM, the IC50 (second compound 0.316 µM) was 5.21 nM and the IC50 (second compound 1 µM) was 5.38 nM. It also gave an IC50 (second compound 3.16 µM) of 4.67 nM, an IC50 (second compound 10 µM) of under 0.949 nM and a viability, T/C [1] of 113%. For the same compound, the viability, T/C [2] was 102%, the viability, T/C [3] was 2.1% and the viability, T/C [4] was 0.04%. It also gave a viability, T/C [5] of 0.04%, a viability, T/C [6] of 0.16% and a viability, T/C [7] of 102%. For the same compound, the viability, T/C [8] was 94.3%, the viability, T/C [9] was 1.97% and the viability, T/C [10] was 0.04%. It also gave a viability, T/C [11] of 0.03%, a viability, T/C [12] of 0.15% and a viability, T/C [13] of 101%. It also gave a viability, T/C [14] of 99.7%, a viability, T/C [15] of 1.76% and a viability, T/C [16] of 0.45%. The viability, T/C [17] was 0.02%, the viability, T/C [18] was 0.26% and the viability, T/C [19] was 93.8%. It also gave a viability, T/C [20] of 80.7%, a viability, T/C [21] of 0.87% and a viability, T/C [22] of 0.04%. For the same compound, the viability, T/C [23] was 0.04%, the viability, T/C [24] was 0.18% and the viability, T/C [25] was 37.7%. The viability, T/C [26] was 28.9%, the viability, T/C [27] was 0.42% and the viability, T/C [28] was 0.21%. It also gave a viability, T/C [29] of 0.21% and a viability, T/C [30] of 0.3%.

Compound `CCc1c2c(nc3ccc(O)cc13)-c1cc3c(c(=O)n1C2)COC(=O)[C@]3(O)CC` + Cc1cncc(-c2nc(NCCc3c[nH]c4ccccc34)c3ncn(C(C)C)c3n2)c1 has an IC50 (second compound 0.1 µM) of 2.07 nM, an IC50 (second compound 0.316 µM) of 2.21 nM and an IC50 (second compound 1 µM) of 2.02 nM. For the same compound, the IC50 (second compound 3.16 µM) was 1.58 nM, the IC50 (second compound 10 µM) was under 0.949 nM and the viability, T/C [1] was 67.4%. It also gave a viability, T/C [2] of 41.6%, a viability, T/C [3] of 21.9% and a viability, T/C [4] of 13.8%. The viability, T/C [5] was 12.6%, the viability, T/C [6] was 12.5% and the viability, T/C [7] was 69%. The viability, T/C [8] was 43.1%, the viability, T/C [9] was 19.9% and the viability, T/C [10] was 14.5%. For the same compound, the viability, T/C [11] was 15.2%, the viability, T/C [12] was 12.2% and the viability, T/C [13] was 62.5%. For the same compound, the viability, T/C [14] was 43.5%, the viability, T/C [15] was 20.7% and the viability, T/C [16] was 15.5%. The viability, T/C [17] was 9.97%, the viability, T/C [18] was 14.7% and the viability, T/C [19] was 62.9%. For the same compound, the viability, T/C [20] was 33.7%, the viability, T/C [21] was 15% and the viability, T/C [22] was 13.1%. It also gave a viability, T/C [23] of 13%, a viability, T/C [24] of 12.4% and a viability, T/C [25] of 22.1%. For the same compound, the viability, T/C [26] was 17.4%, the viability, T/C [27] was 9.92% and the viability, T/C [28] was 8.3%. It also gave a viability, T/C [29] of 9% and a viability, T/C [30] of 6.26%.

`Nc1ccccc1NC(=O)c1ccc(CNC(=O)OCc2cccnc2)cc1` + Cc1cncc(-c2nc(NCCc3c[nH]c4ccccc34)c3ncn(C(C)C)c3n2)c1 was tested, and the IC50 (second compound 0.1 µM) was 592 nM, the IC50 (second compound 0.316 µM) was 574 nM and the IC50 (second compound 1 µM) was 610 nM. It also gave an IC50 (second compound 3.16 µM) of 348 nM, an IC50 (second compound 10 µM) of under 31.6 nM and a viability, T/C [31] of 97.9%. It also gave a viability, T/C [32] of 87.5%, a viability, T/C [33] of 63.4% and a viability, T/C [34] of 39.5%. The viability, T/C [35] was 16.3%, the viability, T/C [36] was 9.46% and the viability, T/C [37] was 89.1%. The viability, T/C [38] was 82.1%, the viability, T/C [39] was 61.4% and the viability, T/C [40] was 39.2%. It also gave a viability, T/C [41] of 17.5%, a viability, T/C [42] of 8.03% and a viability, T/C [43] of 85.8%. The viability, T/C [44] was 88.4%, the viability, T/C [45] was 64.2% and the viability, T/C [46] was 38.1%. The viability, T/C [47] was 16.9%, the viability, T/C [48] was 8.49% and the viability, T/C [49] was 89.6%. For the same compound, the viability, T/C [50] was 68.2%, the viability, T/C [51] was 57% and the viability, T/C [52] was 28.2%. For the same compound, the viability, T/C [53] was 12.7%, the viability, T/C [54] was 8.11% and the viability, T/C [55] was 32%. It also gave a viability, T/C [56] of 34.8%, a viability, T/C [57] of 26.3% and a viability, T/C [58] of 10.3%. It also gave a viability, T/C [59] of 3.46% and a viability, T/C [60] of 3.1%.

With `O=C(c1cc(Cc2n[nH]c(=O)c3ccccc23)ccc1F)N1CCN(C(=O)C2CC2)CC1` + Cc1cncc(-c2nc(NCCc3c[nH]c4ccccc34)c3ncn(C(C)C)c3n2)c1 the IC50 (second compound 0.1 µM) was 9120 nM, the IC50 (second compound 0.316 µM) was 9820 nM and the IC50 (second compound 1 µM) was over 10000 nM. It also gave an IC50 (second compound 3.16 µM) of over 10000 nM, an IC50 (second compound 10 µM) of under 31.6 nM and a viability, T/C [31] of 92.1%. For the same compound, the viability, T/C [32] was 102%, the viability, T/C [33] was 105% and the viability, T/C [34] was 98.1%. The viability, T/C [35] was 91.4%, the viability, T/C [36] was 46.4% and the viability, T/C [37] was 108%. It also gave a viability, T/C [38] of 96%, a viability, T/C [39] of 102% and a viability, T/C [40] of 102%. The viability, T/C [41] was 89.4%, the viability, T/C [42] was 49.1% and the viability, T/C [43] was 96.7%. It also gave a viability, T/C [44] of 94.4%, a viability, T/C [45] of 76.1% and a viability, T/C [46] of 95.2%. It also gave a viability, T/C [47] of 83.7%, a viability, T/C [48] of 58.3% and a viability, T/C [49] of 89.9%. For the same compound, the viability, T/C [50] was 92.2%, the viability, T/C [51] was 77.9% and the viability, T/C [52] was 85%. The viability, T/C [53] was 73.9%, the viability, T/C [54] was 50.4% and the viability, T/C [55] was 31.8%. It also gave a viability, T/C [56] of 46.6%, a viability, T/C [57] of 35.3% and a viability, T/C [58] of 37%. For the same compound, the viability, T/C [59] was 27.8% and the viability, T/C [60] was 22.1%.
